From US20060275229A1, “Skin care active complex and methods of using same” (priority 2005, published 2006)

What was measured:
[1] = Inhibition of UV-induced lipid peroxidation of phospholipid liposomes (antioxidant test, malonaldehyde); format: biochemical; conditions: lecithin liposomes, UV light for 4 hours
Description: Unsaturated fatty acids are present in the phospholipids of cell membranes. Their oxidation compromises membrane integrity and also leads to the generation of breakdown products that are damaging to other important cellular components such as proteins and nucleic acids. Since the skin is exposed to large doses of UV light from the sun, UV-induced peroxidation is a significant route of oxidant damage. […] The left column of Table 2 lists the compounds that were tested, while the right column lists each corresponding compound the effective concentration that inhibits oxidation by 50%. The assay was performed by irradiating a suspension of lecithin liposomes with UV light for 4 hours in the absence of or in the presence of the different compounds listed in the table. […] The rate of lipid oxidation was calculated from the increase in malonaldehyde content.

[2] = biological target: T1, human neutrophil elastase (Homo sapiens, UniProt P08246); test: Neutrophil elastase inhibition, chromogenic substrate assay; format: biochemical
T1 construct: purchased Athens Research and Technology, GA
T1 sequence (P08246 30-267): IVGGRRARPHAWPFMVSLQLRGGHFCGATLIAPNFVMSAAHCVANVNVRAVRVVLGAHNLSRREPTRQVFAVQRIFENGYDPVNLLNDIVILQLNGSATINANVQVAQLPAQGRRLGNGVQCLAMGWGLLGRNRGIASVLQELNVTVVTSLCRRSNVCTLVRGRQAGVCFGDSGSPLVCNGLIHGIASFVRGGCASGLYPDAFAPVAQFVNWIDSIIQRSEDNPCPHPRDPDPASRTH
Source text: In combination, these three enzymes are capable of extensively degrading all of the protein components of the extracellular matrix (ECM) including collagens I and III (the major collagen types in the skin), elastin and the various glycoprotein components (e.g., fibronectin). Elevated expression of these proteases is triggered by inflammatory stimuli such as UV light, and their activity results in ECM damage that is a major component of skin aging.
Ursolic acid is a powerful inhibitor of elastase activity. The inhibition activity of ursolic acid was tested by incubating it with a human neutrophil elastase sample (obtained from Athens Research and Technology, GA) for 10 minutes with a chromogenic substrate, given below. The change in optical density of the substrate at 405 nm was recorded one reading per minute at room temperature reaction mixtures in a 96-well plate. The reaction mixture contains 300 µg/ml methoxysuccinyl-Ala-Ala-Pro-Val-pNA (chromogenic substrate); […] human neutrophil elastase at concentrations in the range 0.55%-3.3%; 70 mM Tris-HCl (pH 8); and 200 mM NaCl.
The % inhibition is calculated relative to the no-sample control.

For `O=C(O[C@@H]1Cc2c(O)cc(O)cc2O[C@@H]1c1cc(O)c(O)c(O)c1)c1cc(O)c(O)c(O)c1` [Epigallocatechin gallate (EGCG), Epigallocatechin gallate], the “EC50 (concentration that inhibits oxidation by 50%)” value [1] was 0.0003 % w/w.
With `C[C@H]1[C@H](C)CC[C@]2(C(=O)O)CC[C@]3(C)C(=CC[C@@H]4[C@@]5(C)CC[C@H](O)C(C)(C)[C@@H]5CC[C@]43C)[C@H]12` [Ursolic Acid, Ursolic acid] the “Elastase Inhibition (%)” value ([2]; concentration 0.0004 %) was 26%, the “Elastase Inhibition (%)” value ([2]; concentration 0.0008 %) was 44% and the “Elastase Inhibition (%)” value ([2]; concentration 0.0012 %) was 58%. For the same molecule, the “Elastase Inhibition (%)” value ([2]; concentration 0.002 %) was 72%, the “Elastase Inhibition (%)” value ([2]; concentration 0.004 %) was 81% and the “Elastase Inhibition (%)” value ([2]; concentration 0.006 %) was 84%. For the same molecule, the “Elastase Inhibition (%)” value ([2]; concentration 0.01 %) was 86% and the “IC50 value for elastase inhibition” value ([2]; human neutrophil elastase, chromogenic substrate, Example 4) was “about 0.0008%”.
With `O=C1O[C@H]([C@@H](O)CO)C(O)=C1O` [Vitamin C (Ascorbic Acid), Ascorbic Acid] the “EC50 (concentration that inhibits oxidation by 50%)” value [1] was 0.002 % w/w.
For `CC(=O)Oc1c(C)c(C)c2c(c1C)CCC(C)(CCC[C@H](C)CCC[C@H](C)CCCC(C)C)O2` (some centres unmarked) [Vitamin E acetate], the “EC50 (concentration that inhibits oxidation by 50%)” value [1] was 0.022 % w/w.
